Reference: publication PMC12631721, “Preclinical Screening Platform Identifies Azatadine‐Dimaleate as a Potent Repurposed Therapeutic Against SARS‐CoV‐2 Infection” (Journal of Medical Virology, 2025)
Where “and” joins values, the source holds several entries; their conditions need not be identical. Equal values may be shown once. Entries after “also recorded” stand apart in the source; their conditions may differ. Read-outs that look alike come from different tables or passages of the source.

What was measured:
SARS‐CoV‐2 LIV strain = type: in vivo, K18‐hACE2 mice; conditions: for Mean weight loss: Azatadine‐Dimaleate 10 mg/kg i.p. daily, remdesivir (as GS‐441524) 25 mg/kg daily, vehicle 12%; for Histopathology score: single animal shown in Fig. S5, 4 dpi, vehicle treated animal score 4
SARS‐CoV‐2 [1] = assay: Viral NSP12 RNA by RT‐qPCR in Calu‐3 cells; type: cell-based; conditions: Calu‐3, RT‐qPCR
Description: (A) Cell viability assessment in uninfected Calu‐3 cells treated with DMSO control, Azatadine‐Dimaleate (25 µM), Remdesivir (1 µM), or the combination (Remdesivir 1 µM + Azatadine 25 µM) for 72 h. […] (B) Release of infectious virus was quantified by plaque assay. Calu‐3 cells were pretreated with Azatadine‐Dimaleate (5 & 25 µM) or Remdesivir (1 µM) 24 h before infection with SARS‐CoV‐2 PHE (MOI = 0.1). (C) Levels of viral NSP12 RNA was measured by RT‐qPCR following treatment with Azatadine‐Dimaleate at (5 & 25 µM) or Remdesivir (1 µM) 24 h before infection with SARS‐CoV‐2 (PHE MOI = 0.1). Data bars represent mean ± SEM of n = 3 independent experiments. Statistical analysis by one‐way ANOVA, ***p ≤ 0.001 vs DMSO control. […] DMSO alone was used as a negative control. At 72 hpi viral titres were determined by plaque assay. Data points represent an average of 3 separate repeat experiments ±SEM.
For RNA extraction, cultures were incubated with 400 µL of Lysis/Binding buffer (High Pure Isolation Kit; Roche) for 5 min at room temperature. […] RNA was quantified by spectrophotometry and 1 µg was transcribed into cDNA using The High‐Capacity cDNA Reverse Transcription Kit (Applied Biosystems, Thermo Fisher Scientific) in 0.2 mL PCR reaction tubes (Eppendorf). […] Ready‐made catalogue assays for a set of primers and probes (FAM labelled) (Thermofisher) specific for human genes involved in the innate immune response to SARS‐COV‐2 such as: IFNL1 (Assay ID: Hs00601677 g1, Cat. No:433118) IFNB (Assay ID:Hs01077958_s1, Cat. No. 4331182), ISG15 (Assay ID: Hs01921425 s1, catalogue no:4331182), IFIT1 (Hs03027069_s1, Cat no. 4331182), IL6 (Hs00174131_m1, Cat no. 4331182) and CXCL8/IL8 (Bt03211906_m1, Cat no. 4331182) were selected for analyses.
(§1) When performing qPCR the Roche probe mixes for the detection of TBP (Cat. No. 05189284001) and GAPDH (Assay ID: Hs02786624_g1, Cat. No:4331182) were used as references. The LightCycler® 480 Probes Master mix was used following the manufacturer's protocol to quantify the mRNA expression levels for all genes of interest. […]

SARS‐CoV‐2 [2] = assay: microbe, parasite or virus in culture; type: cell-based; conditions: for Improvement in potency in combination vs alone: Calu‐3, ratio of EC50 alone to EC50 in combination; for EC50: Severe acute respiratory syndrome coronavirus 2, Calu‐3, pretreated 24 h, PHE MOI = 0.1, 72 hpi, viral titres by plaque assay, read-out: EC50, drug alone
SARS‐CoV‐2 [3] = type: cell-based; conditions: Calu‐3 pretreated 24 h before infection, MOI = 0.1, plaque assay
SARS‐CoV‐2 [4] = assay: microbe, parasite or virus in culture; type: cell-based
SARS‐CoV‐2 [5] = type: cell-based; conditions: WD‐PBECs; for Reduction in viral titers compared to DMSO (significance): Remdesivir 1 µM, Azatadine‐Dimaleate 25 µM, or combination 0.4 µM + 10 µM, 48, 72, 96 hpi
Calu‐3 cells = assay: Cell viability / cytotoxicity in uninfected Calu‐3 cells; conditions: 72 h, Azatadine‐Dimaleate 25 µM, Remdesivir 1 µM, or combination (1 µM + 25 µM)
SARS‐CoV‐2 [6] = assay: CPE-based high-throughput screen (CellTox Green) in Vero cells; type: cell-based
SARS‐CoV‐2 [7] = assay: CPE-based high-throughput screen (CellTox Green) in Calu‐3 cells; type: cell-based
[8] = test system: IFNL1, IFNB, IFIT1, ISG15, IL6, CXCL8/IL8; assay: Innate immune response gene expression by RT‐qPCR in infected WD‐PBECs; type: cell-based, human; conditions: 96 hpi, treatment from 24 hpi
Description: Figure 5 Azatadine‐Dimaleate modulates innate immune responses in WD‐PBEC cultures. RNA samples were harvested at 96 hpi from each condition in duplicate from WD‐PBECs and a panel of selected innate immune genes (IFNL1, IFNB, IFIT1, ISG15, IL‐6, CXCL8/IL8), were quantified using RT‐qPCR assay. The relative ratios for each gene were calculated in reference to a house keeping gene GAPDH using light cycler 96 software 1.1. The data value plotted for each donor in each condition is an average of 2 biological duplicate Transwells and four technical replicates. Where possible, statistical significance was determined using unpaired Student t‐test between DMSO control and individual treatments (*p ≤ 0.05, **p ≤ 0.01).
For RNA extraction, cultures were incubated with 400 µL of Lysis/Binding buffer (High Pure Isolation Kit; Roche) for 5 min at room temperature. […] RNA was quantified by spectrophotometry and 1 µg was transcribed into cDNA using The High‐Capacity cDNA Reverse Transcription Kit (Applied Biosystems, Thermo Fisher Scientific) in 0.2 mL PCR reaction tubes (Eppendorf). […]
as §1

SARS‐CoV‐2 [9] = test system: SARS‐CoV‐2; parameters: method as in PMID 37100830; conditions: clinical trial by Klussmann and colleagues; cited from earlier work
SARS‐CoV‐2 [10] = test system: SARS‐CoV‐2; parameters: method as in PMID 32366720; conditions: Vero cells; cited from earlier work
[11] = Severe acute respiratory syndrome coronavirus 2, Calu‐3 cells, PHE MOI = 0.1, 72 hpi, 7 serial 1 in 2 dilutions from 20 µM, read-out: EC50 (CPE inhibition)
[12] = Vero cells, 5 µM, drug 24 h before infection, MOI = 0.1, 72 hpi
[13] = Calu‐3 cells, 5 µM, drug 24 h before infection, MOI = 0.1, 72 hpi
[14] = Severe acute respiratory syndrome coronavirus 2, Vero cells, 5 µM, drug 24 h before infection, MOI = 0.1, 72 hpi
[15] = Severe acute respiratory syndrome coronavirus 2, Calu‐3 cells, 5 µM, drug 24 h before infection, MOI = 0.1, 72 hpi

CCC(CC)COC(=O)[C@H](C)N[P@](=O)(OC[C@H]1O[C@@](C#N)(c2ccc3c(N)ncnn23)[C@H](O)[C@@H]1O)Oc1ccccc1 [Remdesivir]
Mean weight loss (SARS‐CoV‐2 LIV strain; […]): failed to prevent significant weight loss
Pulmonary viral RNA load (qRT‐PCR) vs vehicle (SARS‐CoV‐2 LIV strain; mouse, in vivo): reduction achieved statistical significance
Histopathology score (SARS‐CoV‐2 LIV strain): 3
Suppression of viral NSP12 RNA levels (SARS‐CoV‐2 [1]; 1 µM): > 95%
Improvement in potency in combination vs alone (SARS‐CoV‐2 [2]): 2.4 fold
EC50 (SARS‐CoV‐2 [2]): 600 nM
Inhibitory activity on viral titres (SARS‐CoV‐2 [3]; 1 µM): comparable inhibitory activity to 25 µM Azatadine‐Dimaleate
EC50 (SARS‐CoV‐2 [4]; [11]): 600 nM
Reduction in viral titers compared to DMSO (significance) (SARS‐CoV‐2 [5]): greatest reduction in viral titers
Cytotoxicity (cell viability) (Calu‐3 cells): No cytotoxic effects

N#C[C@@]1(c2ccc3c(N)ncnn23)O[C@H](CO)[C@@H](O)[C@H]1O [GS‐441524]
inhibition at 5 µM (SARS‐CoV‐2 [6]; Severe acute respiratory syndrome coronavirus 2, Vero): 80 to 90%
inhibition at 5 µM (SARS‐CoV‐2 [7]; Severe acute respiratory syndrome coronavirus 2, Calu-3): 80 to 90%
EC50 (SARS‐CoV‐2 [4]; Severe acute respiratory syndrome coronavirus 2, Calu-3, read-out: EC50 (CPE inhibition)): 850 nM

CCOC(=O)N1CCC(=C2c3ccc(Cl)cc3CCc3cccnc32)CC1 [Loratadine]
% of CPE inhibition (SARS‐CoV‐2 [6]; [12]): negligible activity
% of CPE inhibition (SARS‐CoV‐2 [7]; [13]): negligible activity

CS(=O)(=O)O.CS(=O)(=O)O.Cc1cccc(/C=N/Nc2cc(N3CCOCC3)nc(OCCc3ccccn3)n2)c1 [Apilimod (mesylate)]
% of CPE inhibition (SARS‐CoV‐2 [6]; [12]): 100%
% of CPE inhibition (SARS‐CoV‐2 [7]; [13]): negligible antiviral activity

CN1CCC(=C2c3ccccc3CCc3cccnc32)CC1 [Azatadine‐Dimaleate]
inhibition at 5 µM (SARS‐CoV‐2 [6]; [14]): 88.5%
inhibition at 5 µM (SARS‐CoV‐2 [7]; [15]): 97.6%
Reduction of viral antigen expression in lung (immuno‐stained area) (SARS‐CoV‐2 LIV strain; day 4 post infection, morphometric analysis of SARS‐CoV‐2 N antigen): approximately 50%
Mean weight loss (SARS‐CoV‐2 LIV strain; day 4 post infection): 4%
Infectious virus in lung by plaque assay vs vehicle (SARS‐CoV‐2 LIV strain; mouse, in vivo): statistical significance reached
Reduction of viral antigen expression in lung (immuno‐stained area) (SARS‐CoV‐2 LIV strain; mouse, in vivo): halved
Histopathology score (SARS‐CoV‐2 LIV strain): 2
Reduction of viral NSP12 RNA levels relative to untreated controls (SARS‐CoV‐2 [1]; 5 µM): approximately 50%
Suppression of viral NSP12 RNA levels (SARS‐CoV‐2 [1]; 25 µM): > 95%
Improvement in potency in combination vs alone (SARS‐CoV‐2 [2]): twofold
EC50 (SARS‐CoV‐2 [2]): 4000 nM
Reduction in viral titres (SARS‐CoV‐2 [3]; 5 µM): approximately 100 fold
Reduction in viral titres (SARS‐CoV‐2 [3]; 25 µM): ~ 5,000 fold and > 5,000 fold
EC50 (SARS‐CoV‐2 [4]; [11]): 4000 nM
Lowering of peak viral titers compared to controls (SARS‐CoV‐2 [5]; 48 hpi): 1.4 log10
Lowering of peak viral titers compared to controls (SARS‐CoV‐2 [5]; 96 hpi): 2.33 log10
Reduction in viral titers compared to DMSO (significance) (SARS‐CoV‐2 [5]): significantly reduced viral titers at 72 and 96 hpi
Expression of innate immune response genes (IFNL1, IFNB, IFIT1, ISG15, IL6, CXCL8/IL8) [8]: significant reductions in all except CXCL8/IL8
Cytotoxicity (cell viability) (Calu‐3 cells): no discernible toxicity; also recorded: No cytotoxic effects

CC(C)n1nc(-c2ccc3oc(N)nc3c2)c2c(N)ncnc21 [Sapanisertib]
inhibition at 5 µM (SARS‐CoV‐2 [6]; [14]): 80 to 90%
inhibition at 5 µM (SARS‐CoV‐2 [7]; [15]): 80 to 90%

CN1CCCC(n2nc(Cc3ccc(Cl)cc3)c3ccccc3c2=O)CC1 (centres unmarked) [Azelastine]
Viral load after nasal administration (SARS‐CoV‐2 [9]): significant viral load reduction

CCN(CCO)CCCC(C)Nc1ccnc2cc(Cl)ccc12 (centres unmarked) [hydroxychloroquine]
inhibition at 5 µM (SARS‐CoV‐2 [6]; [14]): 100%
% of CPE inhibition (SARS‐CoV‐2 [7]; [13]): negligible antiviral activity

CC(C)(C)[C@@H]1NC(=O)O[C@@H]2CCC[C@H]2OC/C=C/C(F)(F)c2nc3ccccc3nc2O[C@@H]2C[C@@H](C(=O)N[C@]3(C(=O)NS(=O)(=O)C4(C)CC4)C[C@H]3C(F)F)N(C2)C1=O [Glecaprevir]
inhibition at 5 µM (SARS‐CoV‐2 [6]; [14]): 80 to 90%
inhibition at 5 µM (SARS‐CoV‐2 [7]; [15]): 80 to 90%

c1ccc2c(c1)Sc1ccccc1N2CC1CN2CCC1CC2 (centres unmarked) [Mequitazine]
% of CPE inhibition (SARS‐CoV‐2 [6]; [12]): modest efficacy in Vero cells only
IC50 (SARS‐CoV‐2 [10]): 7280 nM

CCN(CC)CCCC(C)Nc1ccnc2cc(Cl)ccc12 (centres unmarked) [Chloroquine]
inhibition at 5 µM (SARS‐CoV‐2 [6]; [14]): 100%
% of CPE inhibition (SARS‐CoV‐2 [7]; [13]): negligible antiviral activity
